“Also recorded” adds a separate entry of the source. *1 amine or outer side, *2 acyl side, *3 side chain or, on linkers, in order; H or OH if unused. Where a SMILES comes first, the peptide text is derived from it. Bridges are numbered along the chain shown (N, C = ends). The star is where a group is joined. X1 = NC(=O)Cc1cc(=O)oc2cc(NC(=O)[C@@H]3CCCN3C(=O)Cn3nc(C[*:1])cc3C[*:2])ccc12; X2 = NC(=O)Cc1cc(=O)oc2cc(NC(=O)[C@@H]3CCCN3C(=O)Cn3nc(C[*:2])cc3C[*:1])ccc12; AMC = Cc1cc(=O)oc2cc(N*)ccc12; Cbz = O=C(OCc1ccccc1)*
Test system: HEK293 Tet-Off cells with inducible FAPα expression
Test: Live-cell substrate assay
Format: cell-based
Settings: triplicate; for substrate cleavage in cells (mean slope RFU per minute), in words: HEK293 FAP+ vs doxycycline-suppressed FAP- cells, 1400 cells per well in PBS, 200 μM substrate, 37 °C, 90 min; for substrate cleavage in cells after inhibitor pre-treatment, in words: cells pre-treated 30 min at 37 °C with 1 μM UAMC-1100 (FAPα) or VbP (DPP4) before 200 μM substrate
Protocol: 7.5. The following commercial substrates were used: zGP-AMC (Bachem,Catalog No.: […]
conducted in Greiner Bio-One black microplates of 384 wells and polystyrene F-bottom (Catalog No.: 784076). All compounds were dissolved in DMSO at a concentration of 10 mM and then diluted into the respective buffer to the desired final concentration. […]
ACC substrates. […]
HEK tet-off FAPα stable clonal cell line, received from the group of Jan Konvalinka, IOCB Prague, was cultured in IMDM medium with L-glutamine (Sigma-Aldrich, 51471C-1000ML), and supplemented with 10% […] and antibiotics – Geneticin G418 400 μg/ml (Roche, G418-RO) and Puromycin 0.5 μg/ml (Corning, MT61385RA) or Doxycycline 100 ng/ml (Sigma-Aldrich, D9891-1G). In general, cells were passaged at least two times after thawing before their use in cellular […]
assays. FAPα expression was suppressed with Doxycycline for at least a week prior to an […]
Live-cell substrate assay
Cells were grown to near confluency and harvested via trypsinization. After dissociation, extra media with serum was added to prevent further trypsinization. To collect the cells, those were centrifuged for 3 min at 500G and media removed. Cells were washed a total of three times with PBS and resuspended in PBS to 100 cells per μL. To perform the activity assay 14 μL of suspended cells in PBS (100 cell/μL) were plated in a black 384-well low volume “V” bottom plate (total of 1400 cells per well) and pre-treated with 2 μL of either vehicle or inhibitors (1 μM final concentration) for 30 min at 37 °C. DMSO was used as the vehicle. The inhibitors used were […]
DPP4 activity, respectively, in addition to other homologous proteases. After this time, 4 μL of the desired substrate was added to a final concentration of 200 μM and the fluorescence was recorded immediately. Fluorescence was measured using a Cytation 3 plate reader (BioTek). All experiments have at least three technical replicates. All assays were conducted at 37°C for 90 min, unless otherwise noted. Fluorescence measurements were performed at ex/em, 355/460 nm for ACC substrates. The substrates velocity was quantified by calculating the slope of the linear […]
3.2 Phage Display Methodology
The library and panning protocol was adapted from Ekanayake et. al.2 […]
The phage encoded library has the terminal sequence AACXXXXXXXCG. The complexity of the library is 1x109. In general a minimum of 5x1010 PFU were used for panning to have 50 copies of each sequence represented at the beginning of panning.
General reagents for phage display
15.5 g of 2X YT broth (1.6% tryptone, 1.0% yeast extract, 0.5% sodium chloride) 500mL of MilliQ water in a 2L flask, autoclaved.
YT media with 30 μg/mL final concentration of chloramphenicol (CA)
15.5 g of 2X YT broth (1.6% tryptone, 1.0% yeast extract, 0.5% sodium chloride) 500 mL of MilliQ water in a 2L flask, autoclaved. Let it cool to room temperature. Add 500 μL of 30 mg/mL chloramphenicol in ethanol.
Agar plates of YT media with chloramphenicol (30 μg/mL CA)
Weight out 31 g of 2X YT broth (1.6% tryptone, 1.0% yeast extract, 0.5% sodium chloride), 15 g of agar and add 1000 mL of MilliQ water. Autoclave. Let it cool down to approximately 55°C and add 1000 μL of 30 mg/mL CA in ethanol. Mix and pour into plates under sterile conditions.

`CC(C)C[C@@H]1NC(=O)[C@H](CC(N)=O)NC(=O)[C@H](CCC(N)=O)NC(=O)[C@H](Cc2ccccc2)NC(=O)[C@H](CO)NC(=O)[C@H](C(C)C)NC(=O)[C@@H](N)CSCc2cc(nn2CC(=O)N2CCC[C@H]2C(=O)Nc2ccc3c(CC(N)=O)cc(=O)oc3c2)CSC[C@@H](C(=O)NCC(N)=O)NC(=O)[C@H](CC(=O)O)NC1=O` [FAP-33.2] (H-CVSFQNLDCG-NH2; linker 1-9 via X2; N-terminus assumed) was tested, and the “substrate cleavage in cells (mean slope RFU per minute), in words” value was “no activity in cells”.
For `Cc1cc(=O)oc2cc(NC(=O)[C@@H]3CCCN3C(=O)CN)ccc12` [GP-AMC] (H-Gly-Pro-{AMC}), the “substrate cleavage in cells after inhibitor pre-treatment, in words” value was “produced signals in HEK cells even when target proteases were chemically inhibited”.
With `Cc1cc(=O)oc2cc(NC(=O)[C@@H]3CCCN3C(=O)CNC(=O)OCc3ccccc3)ccc12` [zGP-AMC] (Cbz-Gly-Pro-{AMC}) the “substrate cleavage in cells after inhibitor pre-treatment, in words” value was “processed in the presence of both inhibitors; also recorded: produced signals in HEK cells even when target proteases were chemically inhibited”.
With `CC(C)[C@@H]1NC(=O)[C@@H](N)CSCc2cc(n(CC(=O)N3CCC[C@H]3C(=O)Nc3ccc4c(CC(N)=O)cc(=O)oc4c3)n2)CSC[C@@H](C(=O)NCC(N)=O)NC(=O)[C@H](CC(=O)O)NC(=O)[C@H](C)NC(=O)[C@H](CC(N)=O)NC(=O)[C@H](CCC(N)=O)NC(=O)[C@H](Cc2ccccc2)NC(=O)[C@H](CO)NC1=O` [FAP-33.2A6] (H-CVSFQNADCG-NH2; linker 1-9 via X1; N-terminus assumed) the “substrate cleavage in cells (mean slope RFU per minute), in words” value was “selectively cleaved in FAP+ cells” and the “substrate cleavage in cells after inhibitor pre-treatment, in words” value was “hydrolysis suppressed by the FAPα inhibitor UAMC1100 but not by the DPP4 inhibitor VbP”.

— paper PMC12314892, “Macrocyclic Phage Display for Identification of Selective Protease Substrates” (Journal of the American Chemical Society, 2025)
